US6930127B2, “Veterinary treatment of ophthalmic disease in animals using topical tacrolimus” (Eaton Veterinary Laboratories, Inc., priority 2002, dated 2005)

How the values were obtained:
[1] = system: canines with keratoconjunctivitis sicca; assay: Clinical trial of topical tacrolimus in treatment of canine keratoconjunctivitis sicca; type: in vivo, dogs; details: twice daily, 30 days
Experimental: A population of canines with keratoconjunctivitis sicca was subject to a method of treatment with a topical tacrolimus solution in order to evaluate the therapeutic effectiveness of the drug. Materials • 0.02% tacrolimus was prepared in a physiologically acceptable ointment base. • 0.02% tacrolimus was prepared in a physiologically acceptable oil base. • Schirmer Tear Test strips were employed to measure tearing. • Petrolatum eye ointment was used for patient comfort. • Commercial eyewash was used as a cleaning solution. The test group consisted of 26 dogs of various breeds from different geographic areas. […] 24 dogs were administered a dose of tacrolimus in either ointment or oil base twice daily in both eyes for 30 days. 2 dogs received the same treatment in only one eye. Petrolatum ointment was administered to some dogs as necessary for comfort. Debris was flushed from the eyes as necessary using a commercial eyewash preparation. The eyes were examined and observations recorded at days 7-14 and again at 21-30 days during treatment.

[2] = cited from earlier work
immune response = details: 'thought to be'; cited from earlier work

In the case of `C=CC[C@@H]1/C=C(\C)C[C@H](C)C[C@H](OC)[C@H]2O[C@@](O)(C(=O)C(=O)N3CCCC[C@H]3C(=O)O[C@H](/C(C)=C/[C@@H]3CC[C@@H](O)[C@H](OC)C3)[C@H](C)[C@@H](O)CC1=O)[C@H](C)C[C@@H]2OC` [Tacrolimus], the “signs of ocular irritation” value ([1]; 0.02% tacrolimus in ointment or oil base, topical) is reported as “None of the subjects exhibited signs of ocular irritation”, the “treated eyes exhibiting improvement” value ([1]; 0.02% tacrolimus in ointment or oil base, topical, 26 dogs with KCS) is reported as 96% and the “treated eyes exhibiting improved Schirmer Tear Test (STT) values” ([1]; 0.02% tacrolimus in ointment or oil base, topical, 60 second STT) is reported as 92%. The “additional effect: corneal scarring and pigmentation” value ([1]; 0.02% tacrolimus topical) was “reduction in corneal scarring and pigmentation”, the “additional effect: inflammation of the conjunctiva” value ([1]; 0.02% tacrolimus topical) was “reduction in inflammation of the conjunctiva” and the “effectiveness in dogs, including those where cyclosporine had previously failed” value ([1]; 0.02% tacrolimus topical) was “effective in some dogs for whom cyclosporine treatment had previously failed”. For the same molecule, the “solubility in alcohols and some oils” value ([2]; alcohols and some oils) was “soluble”, the solubility in water ([2]; water) was “practically insoluble” and the “potency relative to cyclosporine on a per gram basis” value (immune response) was “up to 100 times”.
